Experimental data as given in US20250123273A1, “SYSTEM TO CALCULATE HUMAN ORAL BIOAVAILABILITY” (CN Bio Innovations Limited, priority 2023, published 2025).

Assays:
[1] = tested on: primary human intestinal cells; assay: Intestinal barrier strength by transepithelial electrical resistance (TEER), primary intestinal cells in different media; type: cell-based; conditions: after 8 days in culture, FIG. 3
From the text: It was clear that that serum free intestinal differentiation media compromised the metabolic functionality of primary liver cells, thus would not be appropriate for the co-culture of these two cell types. Therefore, the inventors investigated which components of serum free intestinal differentiation media were important for intestinal barrier function.

[2] = tested on: primary liver cells; assay: CYP3A4 metabolic rate of primary liver cells co-cultured with primary intestinal cells in dual organ plate; type: cell-based, human; conditions: co-culture with primary intestinal cells; threshold 1 pmol/min/million cell; by day 6 in culture; FIG. 4

Row | Compound | TEER (intestinal barrier strength) [1] | CYP3A4 metabolic rate [2]
1 | C[C@]12CCC(=O)C=C1CC[C@@H]1[C@@H]2[C@@H](O)C[C@@]2(C)[C@H]1CC[C@]2(O)C(=O)CO [hydrocortisone, reference compound] | help maintain primary intestinal cell barrier function | 
2 | epidermal growth factor [EGF] | critical for primary intestinal cell barrier function | compromises the metabolic functionality
